Results from ChEMBL document CHEMBL1157368, “Mass spectrometry-based systems approach for identification of inhibitors of Plasmodium falciparum fatty acid synthase” (Antimicrob Agents Chemother, 2007).
Calls of active or inactive are those of the source. The rule behind the calls is not given here.

Key:
[1] = target: T1, Fatty acid synthase (Plasmodium falciparum) (UniProt Q965D7); test: Inhibition of Plasmodium falciparum FabZ assessed as trans-2-octenoyl-acyl carrier protein level by MALDI-TOF mass spectrometry
T1 sequence (whole entry): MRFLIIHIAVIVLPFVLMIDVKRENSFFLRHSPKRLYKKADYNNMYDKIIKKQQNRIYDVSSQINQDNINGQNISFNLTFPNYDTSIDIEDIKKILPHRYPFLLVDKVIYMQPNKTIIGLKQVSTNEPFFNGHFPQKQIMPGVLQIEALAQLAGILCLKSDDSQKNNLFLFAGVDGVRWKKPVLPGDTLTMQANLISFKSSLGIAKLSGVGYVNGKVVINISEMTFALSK

[2] = tested on: Plasmodium falciparum; test: Inhibition of Plasmodium falciparum FabB/FabF assessed as C6-acyl carrier protein level by MALDI-TOF mass spectrometry
[3] = tested on: Plasmodium falciparum; test: Antiparasitic activity against Plasmodium falciparum; assay type: functional, organism-based
[4] = target: T2, Enoyl-acyl-carrier protein reductase (Plasmodium falciparum, UniProt Q965D5); test: Inhibition of Plasmodium falciparum recombinant FabI
T2 sequence (Q965D5 whole entry): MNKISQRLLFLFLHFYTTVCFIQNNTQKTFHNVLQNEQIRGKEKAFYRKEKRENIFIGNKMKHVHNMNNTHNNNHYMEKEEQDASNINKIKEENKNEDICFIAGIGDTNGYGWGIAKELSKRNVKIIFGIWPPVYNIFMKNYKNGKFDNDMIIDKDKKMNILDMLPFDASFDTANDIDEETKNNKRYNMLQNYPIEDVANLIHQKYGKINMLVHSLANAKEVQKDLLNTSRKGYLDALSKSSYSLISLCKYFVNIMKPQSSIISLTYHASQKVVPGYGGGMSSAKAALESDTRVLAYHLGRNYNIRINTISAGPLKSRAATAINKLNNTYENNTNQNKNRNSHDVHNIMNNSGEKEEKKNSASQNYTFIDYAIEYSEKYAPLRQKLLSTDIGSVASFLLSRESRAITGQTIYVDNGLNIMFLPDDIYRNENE

[5] = tested on: Plasmodium falciparum; test: Antiparasitic activity against Plasmodium falciparum in RBCs; assay type: functional, organism-based
[6] = Inhibition of Plasmodium falciparum recombinant FabI A217V mutant

SMILES: O=C(CC(=O)C(F)(F)F)c1ccc([N+](=O)[O-])cc1
- Activity [1]: Active

SMILES: Oc1ccc(Cl)cc1Oc1ccc(Cl)c2cccnc12
- Activity [1]: Active

SMILES: C/C=C/C/C=C/CCC(=O)[C@H]1O[C@H]1C(N)=O [CERULENIN]
- Activity [2]: Active
- IC50 [3]: 20 µM

SMILES: Oc1cc(Cl)ccc1Oc1ccc(Cl)cc1Cl [TRICLOSAN]
- IC50 [4]: 0.07 µM
- IC50 [5]: 0.7 µM
- Ki [6]: 0.232 µM
